Measured values: ChEMBL document CHEMBL1127307, “Structural evolution and pharmacology of a novel series of triacid angiotensin II receptor antagonists” (J Med Chem, 1994)
Calls of active or inactive are those of the source. The rule behind the calls is not given here.

Experiments:
[1] = target: T1, Type-1 angiotensin II receptor (Oryctolagus cuniculus) (UniProt P34976); experiment: In vitro antagonistic activity against Ang II (AT1) receptor was determined in rabbit aorta; type: functional, tissue-based
T1 sequence (whole entry): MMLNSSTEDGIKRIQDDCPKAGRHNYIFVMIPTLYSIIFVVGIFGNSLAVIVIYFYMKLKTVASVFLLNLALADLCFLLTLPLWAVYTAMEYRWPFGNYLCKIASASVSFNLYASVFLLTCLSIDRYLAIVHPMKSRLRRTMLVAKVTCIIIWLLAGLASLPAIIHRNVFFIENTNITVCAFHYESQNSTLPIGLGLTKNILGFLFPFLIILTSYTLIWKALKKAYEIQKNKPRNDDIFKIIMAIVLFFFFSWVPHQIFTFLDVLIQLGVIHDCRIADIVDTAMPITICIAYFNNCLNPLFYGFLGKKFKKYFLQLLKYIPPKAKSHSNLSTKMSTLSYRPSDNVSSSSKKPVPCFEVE

[2] = target: T2, Type-1 angiotensin II receptor B (Rattus norvegicus) (UniProt P29089); experiment: In vivo pressor response to Ang II (AT1) receptor in pithed rats at an oral dose of 10 mg/kg; Not active; type: functional, organism-based; set-up: dose 10 mg/kg
T2 sequence (whole entry): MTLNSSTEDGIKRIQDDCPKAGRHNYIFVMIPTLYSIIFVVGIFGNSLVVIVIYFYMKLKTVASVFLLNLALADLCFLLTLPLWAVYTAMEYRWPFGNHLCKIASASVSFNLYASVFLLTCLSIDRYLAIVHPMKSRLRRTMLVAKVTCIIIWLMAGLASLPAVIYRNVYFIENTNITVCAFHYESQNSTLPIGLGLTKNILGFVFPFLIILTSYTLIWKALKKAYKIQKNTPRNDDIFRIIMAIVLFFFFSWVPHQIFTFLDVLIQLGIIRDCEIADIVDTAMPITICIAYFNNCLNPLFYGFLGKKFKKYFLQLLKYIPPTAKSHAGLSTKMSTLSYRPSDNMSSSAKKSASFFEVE

[3] = target: T2, Type-1 angiotensin II receptor B (Rattus norvegicus); experiment: In vivo pressor response to Ang II (AT1) receptor in pithed rats at an oral dose of 10 mg/kg; type: functional, organism-based; set-up: dose 10 mg/kg

Row | SMILES | Kb [1] [nM] | Kb [2] | Kb [3] [mg/kg]
1 | CCCCC(C(=O)O)n1cnc(C(=O)Nc2ccccc2)c1 (centres undefined) | 71.5 | – | –
2 | CCCCCC[C@H](C(=O)N1C[C@@H](Oc2ccccc2)C[C@H]1C(=O)O)n1cnc(NC(=O)c2ccccc2S(=O)(=O)O)c1 | 0.8 | – | –
3 | CCCCCC[C@H](C(=O)N1C[C@@H](Oc2ccc(CCC(=O)O)cc2)C[C@H]1C(=O)O)n1cnc(NC(=O)c2ccccc2S(=O)(=O)O)c1 | 0.6 | inactive | –
4 | CCCCCC[C@H](C(=O)N1C[C@@H](Oc2ccc(CCP(=O)(O)O)cc2)C[C@H]1C(=O)O)n1cnc(NC(=O)c2ccccc2S(=O)(=O)O)c1 | 0.4 | – | 8.3
5 | CCCCCC[C@H](C(=O)N1C[C@@H](Oc2ccc(C(=O)O)cc2)C[C@H]1C(=O)O)n1cnc(NC(=O)c2ccccc2S(=O)(=O)O)c1 | 1.1 | inactive | –
6 | CCCCCC[C@H](C(=O)N1C[C@@H](Oc2ccc(OC(C)(C)C)cc2)C[C@H]1C(=O)O)n1cnc(NC(=O)c2ccccc2S(=O)(=O)O)c1 | 5.2 | – | –
7 | CCCCCC[C@H](C(=O)N1C[C@@H](Oc2ccc3sccc3c2)C[C@H]1C(=O)O)n1cnc(NC(=O)c2ccccc2S(=O)(=O)O)c1 | 3.6 | – | –
8 | CCCCCC[C@H](C(=O)N1C[C@@H](Oc2ccc3ccccc3c2)C[C@H]1C(=O)O)n1cnc(NC(=O)c2ccccc2S(=O)(=O)O)c1 | 4.1 | – | –
9 | CCCCCC[C@H](C(=O)N1C[C@@H](Oc2ccno2)C[C@H]1C(=O)O)n1cnc(NC(=O)c2ccccc2S(=O)(=O)O)c1 | 94.6 | – | –
10 | CCCCCC[C@H](C(=O)N1C[C@@H](Oc2ccccc2CC(=O)O)C[C@H]1C(=O)O)n1cnc(NC(=O)c2ccccc2S(=O)(=O)O)c1 | 501 | inactive | –
11 | CCCCCC[C@H](C(=O)N1C[C@@H](Oc2ccccc2OC)C[C@H]1C(=O)O)n1cnc(NC(=O)c2ccccc2S(=O)(=O)O)c1 | > 30 | – | –
12 | CCCCCC[C@H](C(=O)N1C[C@@H](Oc2ccc(C(C)C)cc2)C[C@H]1C(=O)O)n1cnc(NC(=O)c2ccccc2S(=O)(=O)O)c1 | 25.1 | – | –
13 | CCCCCC[C@H](C(=O)N1C[C@@H](O)C[C@H]1C(=O)O)n1cnc(NC(=O)c2ccccc2S(=O)(=O)O)c1 | 25.8 | – | –
14 | CCCCCC[C@H](C(=O)N1C[C@@H](Oc2cccnc2)C[C@H]1C(=O)O)n1cnc(NC(=O)c2ccccc2S(=O)(=O)O)c1 | 148 | – | –
15 | CCCCCC[C@H](C(=O)N1C[C@@H](Oc2ccc(C(C)(C)C(=O)O)cc2)C[C@H]1C(=O)O)n1cnc(NC(=O)c2ccccc2S(=O)(=O)O)c1 | 0.6 | – | 6.5
16 | CCCCCC[C@H](C(=O)N1CCC[C@H]1C(=O)O)n1cnc(NC(=O)c2ccccc2S(=O)(=O)O)c1 | 50.9 | – | –
17 | CCCCCC[C@H](C(=O)N1C[C@@H](Oc2cccc3ccccc23)C[C@H]1C(=O)O)n1cnc(NC(=O)c2ccccc2S(=O)(=O)O)c1 | 4040 | – | –
18 | CCCCCC[C@H](C(=O)N1C[C@@H](Oc2ccc(OC)c(OC)c2)C[C@H]1C(=O)O)n1cnc(NC(=O)c2ccccc2S(=O)(=O)O)c1 | 15.8 | – | –
19 | CCCCCC[C@H](C(=O)N1C[C@@H](Oc2ccc(-c3ccccc3)cc2)C[C@H]1C(=O)O)n1cnc(NC(=O)c2ccccc2S(=O)(=O)O)c1 | 10 | – | –
20 | CCCCCC[C@H](C(=O)N1C[C@@H](Oc2ccc(CC(=O)O)cc2)C[C@H]1C(=O)O)n1cnc(NC(=O)c2ccccc2S(=O)(=O)O)c1 | 0.27 | – | 2.8

Row | SMILES | Kb [1] [nM] | Kb [2] | Kb [3] [mg/kg]
21 | CCCCCCC(C(=O)O)n1cnc(NC(=O)c2ccccc2S(=O)(=O)O)c1 (centres undefined) | 81.7 | – | –
22 | CCCCCC[C@H](C(=O)N1C[C@@H](Oc2cccc(CC(=O)O)c2)C[C@H]1C(=O)O)n1cnc(NC(=O)c2ccccc2S(=O)(=O)O)c1 | 15.8 | – | 10.6
23 | CCCCCC[C@H](C(=O)N1C[C@@H](Oc2ccc(C(C)(C)C)cc2)C[C@H]1C(=O)O)n1cnc(NC(=O)c2ccccc2S(=O)(=O)O)c1 | 126 | – | –
24 | CCCCCC[C@@H](C(=O)N1C[C@@H](Oc2ccccc2)C[C@H]1C(=O)O)n1cnc(NC(=O)c2ccccc2S(=O)(=O)O)c1 | 3.2 | – | –
25 | CCCCCCC(C(=O)O)n1cnc(NC(=O)c2ccccc2C(=O)O)c1 (centres undefined) | 684 | – | –
26 | CCCCCC[C@H](C(=O)N1C[C@@H](Oc2ccc3occc3c2)C[C@H]1C(=O)O)n1cnc(NC(=O)c2ccccc2S(=O)(=O)O)c1 | 0.63 | – | –
27 | CCCCCC[C@H](C(=O)N1C[C@@H](Oc2ccc(CP(=O)(O)O)cc2)C[C@H]1C(=O)O)n1cnc(NC(=O)c2ccccc2S(=O)(=O)O)c1 | 0.9 | – | 1.8
28 | CCCCCCC(C(=O)O)n1cnc(NC(=O)c2cccc(O)c2C(=O)O)c1 (centres undefined) | 124 | – | –
29 | CCCCCC[C@H](C(=O)N1C[C@@H](Oc2ccc(C)cc2)C[C@H]1C(=O)O)n1cnc(NC(=O)c2ccccc2S(=O)(=O)O)c1 | 1.09 | – | –
30 | CCCCCC[C@H](C(=O)N1C[C@@H](Oc2ccc(OC)cc2)C[C@H]1C(=O)O)n1cnc(NC(=O)c2ccccc2S(=O)(=O)O)c1 | 0.44 | – | –
31 | CCCCCC[C@H](C(=O)N1C[C@@H](Oc2ccc3c(c2)OCO3)C[C@H]1C(=O)O)n1cnc(NC(=O)c2ccccc2S(=O)(=O)O)c1 | 0.92 | – | –
32 | CCCCCCC(C(=O)O)n1cnc(NC(=O)c2ccccc2-c2nn[nH]n2)c1 (centres undefined) | 159 | – | –
33 | CCCCCCC(C(=O)O)n1cnc(NC(=O)c2ccccc2)c1 (centres undefined) | 12500 | – | –
34 | CCCCCC[C@H](C(=O)N1C[C@@H](Oc2ccc(C(F)(F)F)cc2)C[C@H]1C(=O)O)n1cnc(NC(=O)c2ccccc2S(=O)(=O)O)c1 | 34.7 | – | –
35 | CCCCCC[C@H](C(=O)N1C[C@@H](Oc2cccc3cnccc23)C[C@H]1C(=O)O)n1cnc(NC(=O)c2ccccc2S(=O)(=O)O)c1 | 3.3 | – | –
36 | CCCCCC[C@H](C(=O)N1C[C@@H](Oc2ccc(F)cc2)C[C@H]1C(=O)O)n1cnc(NC(=O)c2ccccc2S(=O)(=O)O)c1 | 3 | – | –
37 | CCCCCC[C@H](C(=O)N1C[C@@H](Oc2cccc(OC)c2)C[C@H]1C(=O)O)n1cnc(NC(=O)c2ccccc2S(=O)(=O)O)c1 | 11.6 | – | –
38 | CCCCCC[C@H](C(=O)N1C[C@@H](Oc2ccc(OC(C)C)cc2)C[C@H]1C(=O)O)n1cnc(NC(=O)c2ccccc2S(=O)(=O)O)c1 | 4.1 | – | –
39 | CCCCCC[C@@H](C(=O)N1CCC[C@H]1C(=O)O)n1cnc(NC(=O)c2ccccc2S(=O)(=O)O)c1 | 461 | – | –
40 | CCCCCC[C@H](C(=O)N1C[C@@H](Oc2ccc(CC3N=NN=N3)cc2)C[C@H]1C(=O)O)n1cnc(NC(=O)c2ccccc2S(=O)(=O)O)c1 | 0.6 | inactive | –
